For data set [1], the system named is ischemic heart (occlusion of left coronary artery and reperfusion). The data set can be described thus: Cardiodynamic parameters in the cardiac ischemia-reperfusion rat model. In kind it is in vivo, Sprague-Dawley rats. The method, then: (§1) Rats were anesthetized, the tracheotomy was performed and an intubation cannula was connected to a respirator for artificial respiration. Arterial blood pressure monitored by a pressure gauge via a femoral artery. A Miller pressure gauge was intervened into left ventricular chamber via a carotid artery to monitor ventricular pressure. The pressure gauges were connected to a Power-lab biological real-time data recording system. ECG was monitored and recorded via subcutaneous needle probes on the arms of rats. The parameters recorded including: Mean arterial blood pressure (MAP), left ventricular systolic pressure (LVSP), the first derivatives of left ventricular pressure (±dp/dtMax), left ventricular diastolic pressure (LVDP), left ventricular end diastolic pressure (LVEDP) and heart rate (HR).
(§2) The chest was open by a left-side thoracotomy between the 4th intercostals space. The pericardium was opened to expose the heart. A stainless needle and a silk suture were placed around the left coronary artery (LCD) and a loose snare ligation was formed. After complete the surgery, the animals were allowed to stabilize for 10 minus before the occlusion of LCD by tightening the snare. A success in occlusion was associated with an area of pericardial cyanosis, an elevation of T wave or ST segment in ECG. The ischemia period of occlusion was maintained from 20 or 30 minus. Cardiac reperfusion was then achieved by releasing of the snare and was confirmed by hyperemic blushing of the previous ischemic area of cyanosis and gradually recovery of the changes in ECG signals. The reperfusion period was maintained for 50 to 80 minus. ECG, MAP and other cardiodynamic data were recorded before the ischemia (control), and during the periods of ischemia and reperfusion.
Control group: occlusion of coronary/ischemia-reperfusion. Testing group: occlusion of coronary/ischemia-reperfusion plus compound A or B
In part of the experiments, the time periods for occlusion and release of coronary were set for 30 min and 80 min, in order to enhance the results of ischemia-reperfusion.

In data set [2] the test system is ventricular tachycardia and fibrillation caused by coronary ischemia. Briefly: Arrhythmia (VT, VF) during cardiac ischemia by coronary occlusion. The note with it: for VF Duration / VT Duration / VTorVF Onset / VT + VF score: occlusion of coronary for 20 min; for VT + VF score: score = (duration of VT × 1) + (duration of VF × 2). In kind it is in vivo, Sprague-Dawley rats. The procedure:
as §1, §2
Arrhythmia of ventricular tachycardia (VT) and fibrillation (VF) are the main causes of death in clinic. In the control group during ischemia, VT occurred in all of the 11 animals, VF occurred in 10 out of the 11 animals, and 3 out of the 11 animals were dead due to continuation of VF. […] The results from both control and testing groups during cardiac ischemia including the frequency of occurrence, onset time and duration of the VT and VF are shown in table 3.

Data set [3] concerns ischemic myocardium. Briefly: Infarct size of myocardium after ischemia-reperfusion (Evans blue). Type of data set: in vivo, Sprague-Dawley rats. The settings on record: compound A 1 mg/kg; control 58.6±4.7%; weight of infarct tissue/(infarct + ischemia tissue).
From the text: as §2, with “The reperfusion period was maintained for 50 to 80 minus.” left out
Determination of the infarct size of myocardium: In both control and testing groups, After the end of reperfusion period, the coronary was occluded, Evans blue dye (1%, 0.5 ml) was injected to determine the ischemic and non-ischemic area of myocardium. […] After weighing the respective tissue samples, the infarction size of myocardium was calculated and express as following: Size of infarction=weight of infarct tissue/(weight of infarct tissue+weight of ischemia tissue) x %.

For data set [4], the system named is ischemic myocardium, myocytes and mitochondria. Briefly: Morphology of ischemic myocardium under light and electron microscope. Type of data set: in vivo, Sprague-Dawley rats. The method, then:
At the end of experiments, the ischemic and non-ischemic normal myocardium were excised at the ischemic region respectively from both control or testing groups (compound A 1 mg/kg), and from sham-operated animals at respective region of the heart. The tissues were fixed with paraformaldehyde, embedded in wax, cut into thin or ultra-thin sections, stained and viewed under light or electron microscope.
Analogously to Example 5 except the testing group treated with compound B (2 mg/kg). Myocardiac tissues from non-ischemia, ischemia and testing group animals were excised and prepared as noted above. Myocytes and its ultra structure were examined under light and transmission electron microscope. […] The densities of crestae and matrix appear normal, and the granules normally distributed within mitochondria. […] The histological results were similar to the results from the animal treated with compound A (1 mg/kg) and indicate significant protective effects of compound B on myocardium by alleviating the ischemic damage of myocytes and mitochondria.

For data set [5], the system named is cerebral ischemia. The data set can be described thus: Decapitated mouse model of brain ischemia (mouth-opening). Type of data set: in vivo, mice. The method, then: Decapitated mouse model: The mouse first decapitated and the movement of mouth opening was monitored as a sign of respiration. The frequency and duration of mouth-opening was used as an index of cerebral function after decapitation.
The animals were randomly assigned into three groups (n=8, equal number in sex): Control group, only vehicle saline were given; Testing group, compound A (4 mg/kg) dissolved in saline were given; and Positive control group, a reference compound Edaravone (8 mg/kg) dissolved in saline were given, Edaravone is an anti-oxidation drug and has protective effects on neuronal injury (Granl A. et al. 1996).
Vehicle or compounds were administrated intraperitonealy 30 minus before decapitation.

The subject of data set [6] is ischemic heart (left anterior descending coronary artery). Briefly: Pig coronary ischemia-reperfusion by balloon-tip catheter in LAD. Type of data set: in vivo. From the text: At an extremely high dose, the said effects may be abrogated. In a pig study in the invention, a balloon-tip catheter was intervened into left anterior descending coronary artery (LAD) under the guidance of X-ray angiograph. Coronary ischemia and reperfusion was reproduced by inflating or deflating the balloon. […] Kaurene compounds at this large dose may initiate an opposite or undesired effect which can diminish or override the therapeutic effects mentioned above.

The nature of data set [7]: Solubility in water. Type of data set: physicochemical. The settings on record: free acid, before salt formation. The procedure:
The salts can be sodium, potassium or other inorganic salts. A preferred method is to use sodium. The method is the following: A solution of […] of NaOH is prepared. The liquid sodium salt of compound A or B was formed by dissolving 1 g of the compound A or B into 10 ml of the above NaOH solution and adjusting the PH to neutral. This liquid sodium salt can be further diluted with sterile water or mixed with pharmaceutical carrier at needed concentration for parenteral administration. It can be stored at room temperature.

A short description of data set [8]: No obvious toxicity dose, administered intravenously (the invention). In kind it is in vivo.
Data set [9] has as its system mice. The settings on record: cited from earlier work.
The conditions of data set [10]: intravenous injection, previously reported; cited from earlier work.
Data set [11] relates to arterial pressure. The settings on record: 25 mg/kg intraperitoneal in rats; cited from earlier work.
The subject of data set [12] is rats. The settings on record: cited from earlier work.
Data set [13] deals with ischemic heart (occlusion of left coronary artery and reperfusion). The data set can be described thus: Cardiodynamic parameters in the cardiac ischemia-reperfusion rat model. In kind it is in vivo, Sprague-Dawley rats. The settings on record: stevioside 10 to 15 mg/kg, rats.
The conditions of data set [14]: reported; large amount, under certain condition in vitro; cited from earlier work.
The mark [15] stands for this setting: compound A 1 mg/kg i.v., before ischemia.
The mark [16] stands for this setting: compound A 1 mg/kg i.v., ischemia.
The mark [17] stands for this setting: compound A 1 mg/kg i.v., reperfusion.
The mark [18] stands for this setting: 4 mg/kg intraperitoneal 30 min before decapitation.
The mark [19] stands for this setting: 8 mg/kg intraperitoneal 30 min before decapitation.
Where [20] appears, read: compound B 2 mg/kg, before ischemia.
The mark [21] stands for this setting: compound B 2 mg/kg, during ischemia.
Setting [22] is: compound B 2 mg/kg, during reperfusion.

Entries after “also recorded” stand apart in the source; their conditions may differ. Read-outs that look alike come from different tables or passages of the source.

We go through four molecules from patent US9125877B2, “Use of kauranes compounds in the manufacture of medicament” (priority 2004, dated 2015).

What is called LD50 is the dose expected to kill half of the subjects tested. `C[C@@]12CC[C@@H]3[C@@](CC[C@H]4[C@@]3(C)CCC[C@@]4(C)C(=O)O)(CC1=O)C2` [Compound A, (4α,8β,13β)-13-methyl-16-oxo-17-norkauran-18-oic acid]: the hypotension effect result in [1] (1 mg/kg intravenous in rats) is listed as “no such hypotension effect”. For the same molecule, in data set [1] (setting [15]), the “+dp/dt Max.LVSP” value was 8543 ± 486 mmHg/sec, the HR was 367 ± 13 beat/min, the LVSP is 111 ± 4 mmHg and the MAP turned out to be 73 ± 3 mmHg. In data set [1] (setting [16]), the “+dp/dt Max.LVSP” value is recorded as 7468 ± 558 mmHg/sec, the HR was 375 ± 10 beat/min, the LVSP is reported as 103 ± 3 mmHg and the MAP came to 70 ± 5 mmHg. For the same molecule, in [1] (setting [17]), the “+dp/dt Max.LVSP” value is recorded as 8431 ± 340 mmHg/sec, the HR is 394 ± 7 beat/min, the LVSP is 114 ± 5 mmHg and the MAP was 76 ± 3 mmHg. Further, in [2] (1 mg/kg), the “VF Duration” value is 1 s, the “VT Duration” value is 12 + 6 sec, the “VTorVF Onset” value is listed as 730 + 166 sec and the “VT + VF score” value is 14 + 7. In addition, the “survival of cardiac ischemia” value in [2] (compound A 1 mg/kg, control: 3 out of 11 dead due to continuation of VF) is “all the animal survived”. Further, the “size of infarction after ischemia” value in data set [3] amounted to 45.8±2.9%. In addition, in data set [4] (compound A 1 mg/kg, 100× microscope), the “morphology of ischemic myocardium under light microscope” value is “Destruction of myocytes was not evident”. Moreover, in [4] (compound A 1 mg/kg, ×12000, comparing with non-ischemia myocytes), the “ultra structure of ischemic myocytes under electron microscope” value is “no observable damages of the myocytes and mitochondria”. For the same molecule, in [5] (setting [18]), the Duration of mouth-opening worked out at 22.9 ± 5 s and the Frequency of mouth-opening worked out at 14.0 ± 3.2. For the same molecule, the “sever arrhythmia induced by ischemia” value in data set [6] (pig pretreated at a small dose) is “effectively prevented”. Besides, the cardiac contractile function result in data set [6] (pig, extremely high dose (20 times more) administered via LAD) is given as “significant decrease in cardiac contractile function”. The “effects on heart before ischemia” value in [6] (pig, small dose) is listed as “no observable effects on heart”. Moreover, the solubility in water entry in [7] was “not Readily Dissolved in Water”. Moreover, the “no obvious toxicity dose” value in data set [8] was “up to 40 mg/kg”. Also, the “minimum oral lethal dose” value in data set [9] is 5060 mg/kg. Also, the “median lethal dose (LD50)” value in data set [10] was 650 mg/kg. For the same molecule, in data set [11], the “effect of a large dose on vessels and arterial pressure” value is “vasodilation and lowering of arterial pressure”. In addition, in [12] (intraperitoneal, rats), the median lethal dose (LD50) is 617 mg/kg. Further, in data set [12] (intravenous injection, rats), the “median lethal dose (LD50)” value was 503 mg/kg. Moreover, in data set [12] (lethal dose), the “major symptoms of toxicity at lethal dose” value is “vasodilation and renal failure”. In data set [12] (oral, rats), the “minimum oral lethal dose” value is listed as 3160 mg/kg and the “oral median lethal dose (LD50)” value was 3160 mg/kg.
In [5] (setting [19]), `CC1=NN(c2ccccc2)C(=O)C1` [Edaravone, reference compound] gave a Duration of mouth-opening of 17.1 ± 4.3 s and a Frequency of mouth-opening of 13.1 ± 2.4.
In the case of `C=C1C[C@@]23CC[C@H]4[C@@](C)(CCC[C@@]4(C)C(=O)O[C@@H]4O[C@H](CO)[C@@H](O)[C@H](O)[C@H]4O)[C@@H]2CC[C@]1(O[C@@H]1O[C@H](CO)[C@@H](O)[C@H](O)[C@H]1O[C@@H]1O[C@H](CO)[C@@H](O)[C@H](O)[C@H]1O)C3` [stevioside, reference compound], the “therapeutic effects on arrhythmia” value in data set [2] (stevioside 10 to 15 mg/kg, rats) was “No significant therapeutic effects”. Further, the “therapeutic effects on cardiac contractile function” value in [13] is “No significant therapeutic effects”.
`C=C1C[C@@]23CC[C@H]4[C@@](C)(CCC[C@@]4(C)C(=O)O)[C@@H]2CC[C@]1(O)C3` (single isomer, unassigned; ent-13) [Compound B, ent-13-hydroxykaur-16-en-18-oic acid]: in [1] (setting [20]), the “+dp/dtMax. LVSP” value stood at 8609±543 mmHg/sec and the LVSP is reported as 112±5 mmHg. Also, in [1] (setting [21]), the “+dp/dtMax. LVSP” value is listed as 7592±433 mmHg/sec and the LVSP is 104±4 mmHg. Further, in data set [1] (setting [22]), the “+dp/dtMax. LVSP” value was found to be 8362±498 mmHg/sec and the LVSP was 110±4 mmHg. Besides, in data set [2] (2 mg/kg), the “VF Duration” value turned out to be 1 s, the “VT Duration” value is recorded as 21 + 12 sec, the “VTorVF Onset” value was 660 + 178 sec and the “VT + VF score” value is on record as 22 + 13. The “animals dead during cardiac ischemia” value in data set [2] (compound B 2 mg/kg, n=5, control: 3 out of 11 dead) is listed as “none of the animals are dead”. The “morphology of ischemic myocardium under light and transmission electron microscope” value in [4] (compound B 2 mg/kg, comparing with non-ischemia myocytes) was “Damages of both myocytes and mitochondria were not evident”. Moreover, in data set [5] (setting [19]), the Duration of mouth-opening amounted to 20.1 ± 4.1 s and the Frequency of mouth-opening worked out at 12.8 ± 2.7. Besides, the solubility in water result in data set [7] is reported as “not Readily Dissolved in Water”. For the same molecule, the mutagenic effects result in [14] is “certain mutagenic effects; also recorded: may be mutagenic”. Besides, in data set [12] (rat, in vivo, po), the “oral median lethal dose (LD50)” value is listed as 1500 mg/kg.
